Tests used:
PRMT5 [1] = biological target: T1, PRMT5 (Homo sapiens, UniProt O14744); test: PRMT5 biochemical IC50 assay with SAM as cofactor; conditions: PRMT5, SAM as cofactor; read-out: SAM IC50
T1 construct: purchased Viva (custom protein)

PRMT5 [2] = biological target: T1, PRMT5; test: PRMT5 biochemical IC50 assay with no cofactor; conditions: PRMT5, no cofactor; read-out: No Cofactor/rel IC50
Description: Table 1 indicates IC50 values (μM) against PRMT5 for exemplary compounds in the presence of SAM as cofactor, with no cofactor, and with MTA as cofactor, respectively (columns 4-6). […] Ki values can be calculated from the IC50 values as described in the Examples section. As detailed in the Examples section, for the assay performed in the presence of SAM, IC50=Ki×1.5 (Ki=IC50/1.5).

PRMT5 [3] = biological target: T1, PRMT5; test: PRMT5 biochemical IC50 assay with MTA as cofactor; conditions: PRMT5, MTA as cofactor; read-out: MTA IC50
[4] = system: HAP1 MTAP-intact cell line; test: SDMA in-cell western assay, HAP1 MTAP-intact; type: cell-based; conditions: Homo sapiens, HAP1, SDMA in-cell western, HAP1 MTAP-intact; read-out: MTAP HAP1 intact IC50
How it was run: (§1)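 Compounds were tested in HAP1 cells differing only in MTAP status (endogenous expression versus null). Cellular SDMA levels were then measured by in-cell western, giving an IC50 in each background.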

[5] = system: HAP1 MTAP-deleted cell line; test: SDMA in-cell western assay, HAP1 MTAP-deleted; type: cell-based; conditions: for IC50: Homo sapiens, HAP1, SDMA in-cell western, HAP1 MTAP-deleted; for MTAP intact/deleted ratio: IC50 ratio HAP1 MTAP-intact / HAP1 MTAP-deleted, SDMA in-cell western
How it was run: as §1

[6] = system: HAP1 MTAP-deleted cell line; test: Viability assay, MTAP-deleted cell line; type: cell-based; conditions: Homo sapiens, read-out: HAP1 MTAP deleted viability
Description: Table 1 additionally indicates IC50 values in a viability assay for the MTAP-deleted cell line (column 10), indicating the effect of treatment with compound on cell survival.

[7] = read-out: HAP 1 MTAP deleted IC50
[8] = HAP1, viability IC50, MTAP-deleted cell line
[9] = read-out: HAP1 MTAP deleted IC50
[10] = HAP1, viability assay, HAP1 MTAP-deleted

T1 sequence (O14744 whole entry): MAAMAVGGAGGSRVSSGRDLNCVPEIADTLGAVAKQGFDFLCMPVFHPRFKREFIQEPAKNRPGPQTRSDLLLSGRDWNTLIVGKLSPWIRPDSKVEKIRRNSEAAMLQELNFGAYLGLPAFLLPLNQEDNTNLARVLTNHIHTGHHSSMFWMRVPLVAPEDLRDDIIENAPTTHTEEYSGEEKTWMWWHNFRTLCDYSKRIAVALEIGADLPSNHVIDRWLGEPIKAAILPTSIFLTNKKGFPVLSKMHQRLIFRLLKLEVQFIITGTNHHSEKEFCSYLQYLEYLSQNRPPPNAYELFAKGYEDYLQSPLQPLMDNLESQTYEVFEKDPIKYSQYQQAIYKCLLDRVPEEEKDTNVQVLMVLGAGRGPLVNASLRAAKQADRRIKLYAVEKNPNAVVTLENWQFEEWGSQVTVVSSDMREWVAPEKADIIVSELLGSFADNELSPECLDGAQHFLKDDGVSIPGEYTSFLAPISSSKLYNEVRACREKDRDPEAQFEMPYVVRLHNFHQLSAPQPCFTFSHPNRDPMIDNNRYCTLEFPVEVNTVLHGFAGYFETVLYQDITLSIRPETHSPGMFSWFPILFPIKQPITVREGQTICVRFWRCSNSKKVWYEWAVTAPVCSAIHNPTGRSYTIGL
T1 sequence (Q9BQA1 whole entry partner): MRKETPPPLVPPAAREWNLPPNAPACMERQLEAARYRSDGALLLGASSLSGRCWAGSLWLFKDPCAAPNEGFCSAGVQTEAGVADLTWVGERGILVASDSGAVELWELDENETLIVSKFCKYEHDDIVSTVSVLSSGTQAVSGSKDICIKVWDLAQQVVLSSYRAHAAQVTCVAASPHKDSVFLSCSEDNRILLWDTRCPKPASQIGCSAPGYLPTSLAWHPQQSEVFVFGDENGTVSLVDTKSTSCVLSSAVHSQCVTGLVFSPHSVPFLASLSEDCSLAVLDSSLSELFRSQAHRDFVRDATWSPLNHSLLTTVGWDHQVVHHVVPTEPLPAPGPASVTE

Structure (SMILES)	IC50 (PRMT5 [1]) [nM]	IC50 (PRMT5 [2]) [nM]	IC50 (PRMT5 [3]) [nM]	IC50 [4] [nM]	IC50 [5, 7] [nM]	IC50 [5, 9] [nM]	MTAP intact/deleted ratio [5]	IC50 [6, 8] [µM]	IC50 [6, 10] [µM]
Cc1cc(NC(=O)C(=O)N2C[C@H](C)CC[C@H]2c2cnc3scnc3c2)cnc1N (racemic) [Compound 685, N-(6-amino-5-methyl-3-pyridyl)-2-[(2S,5R)-5-methyl-2-thiazolo[5,4-b]pyridin-6-yl-1-piperidyl]-2-oxo-acetamide]	> 500	50 to 500	50 to 500	> 1000	100 to 1000		A (an IC50 ratio greater than or equal to 10 fold)	> 10	
Cc1cc(NC(=O)C(=O)N2C[C@H](C)CC[C@H]2C2CC3(CCC3)C2)cnc1N (racemic) [Compound 692, N-(6-amino-5-methylpyridin-3-yl)-2-(5-methyl-2-(spiro[3.3]heptan-2-yl)piperidin-1-yl)-2-oxoacetamide]	> 500	> 500	50 to 500	> 1000	> 1000		C (an IC50 ratio of less than 3 fold)	> 10	
[H][C@@]1([C@]2([H])C[C@@]3(C[C@H](O)C3)C2)CC[C@@H](C)CN1C(=O)C(=O)Nc1cnc(N)c(C)c1 (mixture of isomers) [Compound 711]	> 500	> 500	50 to 500	> 1000		> 1000	B (an IC50 ratio greater than or equal to 3 fold but lower than 10 fold)		> 10
Cc1cc(NC(=O)C(=O)N2C[C@H](C)CC[C@H]2c2ccn(-c3ccn[nH]3)n2)cnc1N (racemic) [Compound 715, 2-(2-(1′H-[1,3′-bipyrazol]-3-yl)-5-methylpiperidin-1-yl)-N-(6-amino-5-methylpyridin-3-yl)-2-oxoacetamide]	> 500	50 to 500	50 to 500	> 1000		< 100	A (an IC50 ratio greater than or equal to 10 fold)		1 to 10
CC(=O)N1CCC([C@@H]2CC[C@@H](C)CN2C(=O)C(=O)Nc2cnc(N)c(C)c2)CC1 (racemic) [Compound 737, 2-[(2R,5S)-2-(1-acetyl-4-piperidyl)-5-methyl-1-piperidyl]-N-(6-amino-5-methyl-3-pyridyl)-2-oxo-acetamide]	> 500	50 to 500	50 to 500	> 1000		> 1000	B (an IC50 ratio greater than or equal to 3 fold but lower than 10 fold)		> 10
Cc1cc(NC(=O)C(=O)N2C[C@H](C)CC[C@H]2c2cc3[nH]ncc3s2)cnc1N (racemic) [Compound 743, N-(6-amino-5-methylpyridin-3-yl)-2-(5-methyl-2-(1H-thieno[3,2-c]pyrazol-5-yl)piperidin-1-yl)-2-oxoacetamide]	50 to 500	50 to 500	50 to 500	100 to 1000		< 100	A (an IC50 ratio greater than or equal to 10 fold)		< 1
Cc1cc(NC(=O)C(=O)N2C[C@H](C)CC[C@H]2C2CCCNC2)cnc1N (mixture of isomers) [Compound 744, N-(6-amino-5-methyl-3-pyridyl)-2-[(2R,5S)-5-methyl-2-(3-piperidyl)-1-piperidyl]-2-oxo-acetamide]	> 500	> 500	50 to 500	> 1000		> 1000	C (an IC50 ratio of less than 3 fold)		> 10
CC(=O)N[C@H]1CCN(C(=O)C(=O)Nc2cncc(C(N)=O)c2)[C@@H](c2ccccc2)C1 (racemic) [Compound 745, 5-[[2-[(2R,4S)-4-acetamido-2-phenyl-1-piperidyl]-2-oxo-acetyl]amino]pyridine-3-carboxamide]	> 500	> 500	50 to 500	> 1000		> 1000	C (an IC50 ratio of less than 3 fold)		> 10

Second part, led by results:

IC50 (PRMT5 [1]) [nM]	IC50 (PRMT5 [2]) [nM]	IC50 (PRMT5 [3]) [nM]	IC50 [4] [nM]	IC50 [5, 7] [nM]	IC50 [5, 9] [nM]	Structure (SMILES)	MTAP intact/deleted ratio [5]	IC50 [6, 8] [µM]	IC50 [6, 10] [µM]
50 to 500	50 to 500	< 50	100 to 1000	< 100		Cc1cc(NC(=O)C(=O)N2C[C@H](C)CC[C@H]2c2ccc3[nH]c(=O)ccc3c2)cnc1N (racemic) [Compound 671, rac-N-(6-Amino-5-methyl-3-pyridyl)-2-[5-methyl-2-(2-oxo-1H-quinolin-6-yl)-1-piperidyl]-2-oxo-acetamide]	B (an IC50 ratio greater than or equal to 3 fold but lower than 10 fold)	< 1	
50 to 500	50 to 500	50 to 500	> 1000	100 to 1000		Cc1cc(NC(=O)C(=O)N2C[C@H](C)CC[C@H]2c2ccc(C(C)(C)O)cc2)cnc1N (racemic) [Compound 672, N-(6-amino-5-methyl-3-pyridyl)-2-[(2R,5S)-2-[4-(1-hydroxy-1-methyl-ethyl)phenyl]-5-methyl-1-piperidyl]-2-oxo-acetamide]	B (an IC50 ratio greater than or equal to 3 fold but lower than 10 fold)	1 to 10	
50 to 500	50 to 500	< 50	> 1000	100 to 1000		Cc1cc(NC(=O)C(=O)N2C[C@H](C)CC[C@H]2c2cccc(S(N)(=O)=O)c2)cnc1N (racemic) [Compound 688, N-(6-amino-5-methyl-3-pyridyl)-2-[(2S,5R)-5-methyl-2-(3-sulfamoylphenyl)-1-piperidyl]-2-oxo-acetamide]	A (an IC50 ratio greater than or equal to 10 fold)	1 to 10	
50 to 500	50 to 500	< 50	> 1000	100 to 1000		Cc1cc(NC(=O)C(=O)N2C[C@H](C)CC[C@H]2c2cccc3[nH]ncc23)cnc1N (racemic) [Compound 690, rac-N-(6-amino-5-methyl-3-pyridyl)-2-[(2S,5R)-2-(1H-indazol-4-yl)-5-methyl-1-piperidyl]-2-oxo-acetamide]	A (an IC50 ratio greater than or equal to 10 fold)	1 to 10	
50 to 500	50 to 500	< 50	> 1000	100 to 1000		CNS(=O)(=O)c1cccc([C@@H]2CC[C@@H](C)CN2C(=O)C(=O)Nc2cnc(N)c(C)c2)c1 (racemic) [Compound 691, N-(6-amino-5-methyl-3-pyridyl)-2-[(2S,5R)-5-methyl-2-[3-(methylsulfamoyl)phenyl]-1-piperidyl]-2-oxo-acetamide]	A (an IC50 ratio greater than or equal to 10 fold)	1 to 10	
50 to 500	< 50	< 50	> 1000		< 100	CCc1cc(NC(=O)C(=O)N2C[C@@H](C)CC[C@@H]2c2ccc(F)cc2)cnc1N (racemic) [Compound 710, N-(6-amino-5-ethylpyridin-3-yl)-2-(2-(4-fluorophenyl)-5-methylpiperidin-1-yl)-2-oxoacetamide]	A (an IC50 ratio greater than or equal to 10 fold)		< 1
50 to 500	50 to 500	< 50	> 1000		100 to 1000	Cc1cc(NC(=O)C(=O)N2C[C@H](C)CC[C@H]2c2cccc3c2CC(=O)N3)cnc1N (racemic) [Compound 714, N-(6-Amino-5-methyl-3-pyridyl)-2-[(2S,5R)-5-methyl-2-(2-oxoindolin-4-yl)-1-piperidyl]-2-oxo-acetamide]	A (an IC50 ratio greater than or equal to 10 fold)		1 to 10
50 to 500	50 to 500	< 50	> 1000		< 100	Cc1cc(NC(=O)C(=O)N2C[C@H](C)CC[C@H]2c2ccc3ncsc3c2)cnc1N (racemic) [Compound 716, N-(6-amino-5-methyl-3-pyridyl)-2-[(2S,5R)-2-(1,3-benzothiazol-6-yl)-5-methyl-1-piperidyl]-2-oxo-acetamide]	A (an IC50 ratio greater than or equal to 10 fold)		< 1
50 to 500	50 to 500	50 to 500	> 1000		> 1000	CCOc1ncc(NC(=O)C(=O)N2C[C@@H](C)CC[C@@H]2c2ccccc2)cc1C(N)=O (racemic) [Compound 738]	B (an IC50 ratio greater than or equal to 3 fold but lower than 10 fold)		> 10

— US11999727B2 (Tango Therapeutics, Inc., priority 2020, dated 2024)
